Test results: US11351178B2, “Selective HDAC6 inhibitors” (ITALFARMACO S.P.A., priority 2017, dated 2022)

Legend:
[1] = Stability to Phase I metabolism in rat S9 liver fraction; format: in vitro ADME; settings: after 90 min, 37° C.
Description: Test compounds were incubated in rat and human liver S9 fraction at 37° C. up to 90 minutes in order to evaluate their stability to Phase I metabolism by hepatic enzymes. […] The reaction was stopped placing samples on ice bath and adding acidified acetonitrile. After centrifugation (10 minutes at 14000 rpm) an aliquot of the supernatant was diluted water, filtered with 0.45 μm regenerated cellulose syringe filters and injected in HPLC-UV or in LC-MS/MS. The percentages of the amount remaining at the various incubation times with respect to the initial amount were calculated. The intrinsic clearance was also calculated.

Stability in rat plasma = format: in vitro ADME; settings: after 4 hours, 37° C.
Description: In order to evaluate the stability to circulating enzymes, test compounds were incubated in human and rat plasma at 37° C. in a thermostated oscillating bath. Each test compound was incubated at μM (50 μM when the samples were analysed by UV/HPLC, 1 or 2 μM when the samples were analysed by LC-MS/MS) concentration for 0, 15, 30 min and 1, 2 and 4 hours. The reaction was stopped placing tubes on ice bath and adding acidified acetonitrile. After centrifugation for 10 minutes at 14000 rpm, an aliquot of the supernatant was diluted with water, filtered with 0.45 μm syringe filters and injected in HPLC-UV or in LC-MS/MS. The percentages of amount remaining at the various times of incubation with respect to initial amount were calculated. The half-life in plasma was also calculated.

recombinant human HDAC6 = biological target: T1, recombinant human HDAC6 (Homo sapiens, UniProt Q9UBN7); experiment: Enzymatic screening on recombinant human HDAC6; format: biochemical; settings: Table 2; read-out: HDAC6 IC50
T1 sequence (Q9UBN7 1-1215): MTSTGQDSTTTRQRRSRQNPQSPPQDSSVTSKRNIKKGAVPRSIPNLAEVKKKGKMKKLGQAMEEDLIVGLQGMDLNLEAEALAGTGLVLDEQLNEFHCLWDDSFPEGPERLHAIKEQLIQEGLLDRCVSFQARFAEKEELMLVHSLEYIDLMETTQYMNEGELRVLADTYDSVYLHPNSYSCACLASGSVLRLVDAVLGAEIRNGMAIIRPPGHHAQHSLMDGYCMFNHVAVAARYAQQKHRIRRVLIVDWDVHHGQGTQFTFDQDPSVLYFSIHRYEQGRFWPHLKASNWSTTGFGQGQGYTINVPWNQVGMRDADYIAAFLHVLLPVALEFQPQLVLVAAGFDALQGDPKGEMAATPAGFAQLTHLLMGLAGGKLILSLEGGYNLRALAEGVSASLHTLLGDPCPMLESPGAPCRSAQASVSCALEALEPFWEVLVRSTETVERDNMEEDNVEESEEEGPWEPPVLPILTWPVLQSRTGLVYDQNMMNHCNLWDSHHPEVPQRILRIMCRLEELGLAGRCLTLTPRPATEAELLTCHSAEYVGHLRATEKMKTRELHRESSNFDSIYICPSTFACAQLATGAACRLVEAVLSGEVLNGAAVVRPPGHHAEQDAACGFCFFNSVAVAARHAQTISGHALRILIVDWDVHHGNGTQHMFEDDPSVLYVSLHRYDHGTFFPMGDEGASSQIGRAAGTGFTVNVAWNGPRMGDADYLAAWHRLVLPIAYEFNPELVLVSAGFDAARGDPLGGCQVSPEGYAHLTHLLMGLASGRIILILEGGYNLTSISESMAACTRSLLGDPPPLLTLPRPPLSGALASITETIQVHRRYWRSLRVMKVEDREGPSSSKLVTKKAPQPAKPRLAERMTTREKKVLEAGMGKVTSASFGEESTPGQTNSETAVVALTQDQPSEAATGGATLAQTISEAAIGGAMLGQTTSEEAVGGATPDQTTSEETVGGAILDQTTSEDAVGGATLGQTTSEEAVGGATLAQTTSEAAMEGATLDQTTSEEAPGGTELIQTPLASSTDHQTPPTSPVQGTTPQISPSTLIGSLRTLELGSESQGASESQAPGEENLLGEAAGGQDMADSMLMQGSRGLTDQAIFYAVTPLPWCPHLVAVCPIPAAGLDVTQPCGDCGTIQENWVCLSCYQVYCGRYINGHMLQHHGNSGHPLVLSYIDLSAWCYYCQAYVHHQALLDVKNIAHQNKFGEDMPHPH
Description: Enzymatic activity on recombinant human HDAC6 and HDAC3 was evaluated (Table 2) for each synthesized compound.
After a period of incubation at 30° C. (incubation times vary for different isoforms and are shown in table 1) 25 μL of solution containing the substrate were added. As substrate, FLUOR DE LYS® deacetylase substrate (Enzo Life Sciences, cat #BML-K1104, FdL), FLUOR DE LYS®-Green substrate (Enzo Life Sciences, cat #BML-K1572 FdL_G) and trifluoroacetyl-L-lysine (Tfal)-2× concentrated solution in 25 mM Tris-HCl, pH 8, 130 mM NaCl 0.05% Tween-20 10% glycerol) were used. Following a reaction period at 30° C.

| SMILES | residual percentage in rat S9 fraction [1] [%] | residual percentage in rat plasma (Stability in rat plasma) [%] | IC50 (recombinant human HDAC6) [nM] |
| --- | --- | --- | --- |
| O=C(NO)c1ccc(Cn2nnc(-c3ccc(Cl)cc3)n2)cc1 [comp. 31, 4-[[5-(4-chlorophenyl)tetrazol-2-yl]methyl]benzenecarbohydroxamic acid] | 0 | 76 | 14 |
| O=C(NO)c1ccc(Cn2nnc(Cc3ccccc3)n2)cc1 [comp. 36, 4-[(5-benzyltetrazol-2-yl)methyl]benzenecarbohydroxamic acid] | 38 | 60 | 52 |
| O=C(NO)c1ccc(Cn2nnnc2Cc2ccccc2)cc1 [comp. 37, 4-[(5-benzyltetrazol-1-yl)methyl]benzenecarbohydroxamic acid] | 82 | 6 | 212 |
| O=C(NO)c1ccc(Cn2nnc(-c3ccc(Cl)cc3Cl)n2)cc1 [comp. 38, 4-[[5-(2,4-dichlorophenyl)tetrazol-2-yl]methyl]benzenecarbohydroxamic acid] | 1 | – | 10 |
| Cc1ccsc1-c1nnn(Cc2ccc(C(=O)NO)cc2)n1 [comp. 39, 4-[[5-(3-methyl-2-thienyl)tetrazol-2-yl]methyl]benzenecarbohydroxamic acid] | 0 | 63 | 3 |
| O=C(NO)c1ccc(Cn2nnc(-c3csc4ccccc34)n2)cc1 [comp. 42, 4-[[5-(benzothiophen-3-yl)tetrazol-2-yl]methyl]benzenecarbohydroxamic acid] | 16 | – | 5 |
| COc1ccc(Cc2nc(Cc3ccc(C(=O)NO)cc3)n(-c3ccc(C(F)(F)F)cc3)n2)cc1OC [comp. 44, 4-[[5-[(3,4-dimethoxyphenyl)methyl]-2-[4-(trifluoromethyl)phenyl]-1,2,4-triazol-3-yl]methyl]benzenecarbohydroxamic acid] | 87 | 32 | 415 |
| COc1ccc(Cc2nnc(Cc3ccc(C(=O)NO)cc3)o2)cc1OC [comp. 45, 4-[[5-[(3,4-dimethoxyphenyl)methyl]-1,3,4-oxadiazol-2-yl]methyl]benzenecarbohydroxamic acid] | 69 | 81 | 68 |
| COc1ccc(-c2nc(Cc3ccc(C(=O)NO)cc3)no2)cc1OC [comp. 49, 4-[[5-(3,4-dimethoxyphenyl)-1,2,4-oxadiazol-3-yl]methyl]benzenecarbohydroxamic acid] | 57 | 82 | 7 |
| CSc1sc(-c2nnn(Cc3ccc(C(=O)NO)cc3)n2)c2c1C(=O)CC(C)(C)C2 [comp. 54, 4-[[5-(6,6-dimethyl-3-methylsulfanyl-4-oxo-5,7-dihydro-2-benzothiophen-1-yl)tetrazol-2-yl]methyl]benzenecarbohydroxamic acid] | 0 | – | 18 |
| O=C(NO)c1ccc(Cn2nnc(-c3cc4ccccc4s3)n2)cc1 [comp. 55, 4-[[5-(benzothiophen-2-yl)tetrazol-2-yl]methyl]benzenecarbohydroxamic acid] | 46 | – | 6 |
| COc1ccc(-c2nnc(Cc3ccc(C(=O)NO)cc3)o2)cc1OC [comp. 57, 4-[[5-(3,4-dimethoxyphenyl)-1,3,4-oxadiazol-2-yl]methyl]benzenecarbohydroxamic acid] | 71 | 94 | 8 |
| Cc1nc(Sc2ccc(C(=O)NO)cc2)nn1-c1ccc(Cl)cc1Cl [comp. 62, 4-[[1-(2,4-dichlorophenyl)-5-methyl-1,2,4-triazol-3-yl]sulfanyl]benzenecarbohydroxamic acid] | 55 | 83 | 127 |
| Cc1ccc(-c2cc(-c3nnc(Sc4ccc(C(=O)NO)cc4)n3C)c3ccccc3n2)cc1 [comp. 67, 4-[[4-methyl-5-[2-(p-tolyl)-4-quinolyl]-1,2,4-triazol-3-yl]sulfanyl]benzenecarbohydroxamic acid] | 44 | 101 | 70 |
| O=C(NO)c1ccc(Cc2nnc(-c3ccccc3)o2)cc1 [comp. 68, 4-[(5-phenyl-1,3,4-oxadiazol-2-yl)methyl]benzenecarbohydroxamic acid] | 34 | 77 | 4 |

More lines, now with the values ahead:

| residual percentage in rat S9 fraction [1] [%] | residual percentage in rat plasma (Stability in rat plasma) [%] | IC50 (recombinant human HDAC6) [nM] | SMILES |
| --- | --- | --- | --- |
| 9 | 77 | 47 | O=C(NO)c1ccc(Sc2nnc(-c3c[nH]c4ccccc34)n2Cc2ccco2)cc1 [comp. 25, 4-[[4-(2-furylmethyl)-5-(1H-indol-3-yl)-1,2,4-triazol-3-yl]sulfanyl]benzenecarbohydroxamic acid;2,2,2-trifluoroacetic acid] |
| 74 | 103 | 19 | O=C(NO)c1ccc(Sc2nnc(-c3ccc(F)cc3)[nH]2)cc1 [comp. 29, 4-[[5-(4-fluorophenyl)-4H-1,2,4-triazol-3-yl]sulfanyl]benzenecarbohydroxamic acid] |
| 63 | 49 | 25 | CCn1c(Sc2ccc(C(=O)NO)cc2)nnc1-c1ccc(F)cc1 [comp. 30, 4-[[4-ethyl-5-(4-fluorophenyl)-1,2,4-triazol-3-yl]sulfanyl]benzenecarbohydroxamic acid] |
| 79 | – | 12 | O=C(NO)c1cc(F)c(Sc2nnc(-c3ccc(F)cc3)n2CCN2CCOCC2)c(F)c1 [comp. 138, 3,5-difluoro-4-[[5-(4-fluorophenyl)-4-(2-morpholinoethyl)-1,2,4-triazol-3-yl]sulfanyl]benzenecarbohydroxamic acid] |
| – | – | 7 | Cn1c(Sc2c(F)cc(C(=O)NO)cc2F)nnc1-c1ccc(CN2CCCC2)o1 [comp. 207, 3,5-difluoro-4-[[4-methyl-5-[5-(pyrrolidin-1-ylmethyl)-2-furyl]-1,2,4-triazol-3-yl]sulfanyl]benzenecarbohydroxamic acid] |
| – | – | 48 | COc1ccc(C2(c3nnc(Sc4c(F)cc(C(=O)NO)cc4F)n3C)CC2)cc1 [compound 104, 3,5-difluoro-4-[[5-[1-(4-methoxyphenyl)cyclopropyl]-4-methyl-1,2,4-triazol-3-yl]sulfanyl]benzenecarbohydroxamic acid] |
| – | – | 9 | O=C(NO)c1cc(F)c(Cc2noc(-c3ccc(CN4CCCC4)o3)n2)c(F)c1 [compound 202, 3,5-difluoro-4-[[5-[5-(pyrrolidin-1-ylmethyl)-2-furyl]-1,2,4-oxadiazol-3-yl]methyl]benzenecarbohydroxamic acid] |
